According to article PMC10820527, “Synthesis, Characterization, and Investigation of Anti-Inflammatory and Cytotoxic Activities of Novel Thiourea Derivatives of Naproxen” (Pharmaceutics, 2023):

Legend:
5-LOX = target: T1, 5-LOX (Homo sapiens, UniProt P09917); experiment: Fluorometric 5-LOX inhibitor screening kit; type: biochemical; conditions: mean of two measurements with standard error, read-out: 5-LOX Percent of Inhibition
T1 construct: purchased Abcam
T1 sequence (P09917 1-674): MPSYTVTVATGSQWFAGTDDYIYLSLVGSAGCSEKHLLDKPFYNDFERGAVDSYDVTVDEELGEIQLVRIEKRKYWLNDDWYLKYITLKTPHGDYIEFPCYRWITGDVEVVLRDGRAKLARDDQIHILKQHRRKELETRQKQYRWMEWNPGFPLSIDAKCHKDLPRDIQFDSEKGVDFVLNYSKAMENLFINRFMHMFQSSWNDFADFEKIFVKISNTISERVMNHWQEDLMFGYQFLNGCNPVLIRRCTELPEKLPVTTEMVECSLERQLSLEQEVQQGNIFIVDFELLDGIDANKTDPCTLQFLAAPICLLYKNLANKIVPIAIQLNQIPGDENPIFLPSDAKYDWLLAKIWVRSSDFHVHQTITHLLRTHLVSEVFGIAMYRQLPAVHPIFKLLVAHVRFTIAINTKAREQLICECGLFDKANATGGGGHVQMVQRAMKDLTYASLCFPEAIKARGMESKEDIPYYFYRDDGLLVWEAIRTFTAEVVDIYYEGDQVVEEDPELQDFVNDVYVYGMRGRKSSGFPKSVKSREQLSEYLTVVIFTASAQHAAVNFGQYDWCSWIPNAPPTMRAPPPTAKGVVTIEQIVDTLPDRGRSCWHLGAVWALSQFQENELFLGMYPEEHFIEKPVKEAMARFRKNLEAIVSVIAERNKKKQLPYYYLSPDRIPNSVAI
Procedure: The COX-2 and 5-LOX inhibitory potential of the tested compounds was evaluated using a fluorometric COX-2 and 5-LOX inhibitor screening kit (Abcam, Cambridge, UK). These tests are based on determining the presence of prostaglandin G2 (a product of COX enzyme activity) or an intermediate generated by the enzyme 5-LOX, using fluorometric detection. The mentioned experiments were performed according to the manufacturer’s instructions.
For the determination of COX-2 inhibitory potential of tested compounds, stock solutions (5 mM in DMSO) were diluted with the same solvent (test solutions). The test solutions were further diluted with COX assay buffer by mixing 2 µL of the corresponding test solution and 8 µL of COX assay buffer. For the preparation of inhibitory control (IC), celecoxib (2 µL) and COX assay buffer (8 µL) were mixed. Solvent control (SC) was prepared by mixing DMSO (2 µL) and the COX assay buffer (8 µL), enzyme control (EC) was 10 µL of COX assay buffer, while the samples (S) were 10 µL of diluted test solutions. IC, SC, EC, and S were transferred into corresponding wells. For the determination of 5-LOX inhibitory potential of tested compounds, stock solutions of the same concentration (5 mM) were prepared in DMSO. These solutions were further diluted with the same solvent to obtain the test solutions, which were added into the appropriate wells (2 µL). EC, SC, and IC were prepared by adding 2 µL of the assay buffer, DMSO, and zileuton into corresponding wells, respectively.
The fluorescence of the samples was measured kinetically at 25 °C (COX-2: Ex/Em = 535/587 nm, during 10 min; 5-LOX: Ek/Em = 500/536 nm during 20 min) using a Synergi LX multi-mode microplate reader (BioTek, Shoreline, WA, USA).

[1] = tested on: carrageenan-induced rat paw edema; experiment: Carrageenan-induced rat paw edema model; type: in vivo; conditions: for Rat Paw Thickness: mean ± SD; for inhibition in vivo at 2.5 mg/kg / inhibition in vivo at 5 mg/kg / inhibition in vivo at 10 mg/kg: Rattus norvegicus
Procedure: The Carrageenan-induced rat paw edema model was used to assess the anti-inflammatory potential of novel compounds 8–14. Induction of inflammation was performed in all animals by intraplantar injection of […] 0.5% carrageenan saline into the left hind paw.
Animals (n = 200) were randomly divided into the following groups: control groups, that received either 1% DMSO or naproxen, and experimental groups, that received the novel compounds 8–14.
Control groups included DMSO and naproxen groups. Rats belonging to the DMSO group received 1% DMSO in the same volume as the compounds 8–14, 60 min before carrageenan injection. Moreover, naproxen groups included rats that were subjected to naproxen treatment in three doses: 2.5 mg/kg, 5 mg/kg, and 10 mg/kg. Naproxen was applied in the same manner as 1% DMSO.
Experimental groups included rats that were treated with compounds 8–14 and they were divided into three subgroups depending on the applied dose: 2.5 mg/kg, 5 mg/kg, and 10 mg/kg. The examined compounds were dissolved in 1% DMSO prior to treatment and applied to rats 60 min before inducing inflammation, i.e., before carrageenan injection. Doses of naproxen and investigated compounds were defined based on our previously published research.
In order to quantify the anti-inflammatory effects of the tested compounds, left paw thickness was measured at specific time points: prior to inflammation induction (moment 0) and 1, 2, 3, and 4 h (moments 1, 2, 3, and 4) following carrageenan injection. Tissue thickness was measured in the middle of the rat paw using a Digital Vernier caliper (Aerospace, China). The percentage of inhibition of paw edema after treatment with different agents was calculated according to the formula, Equation (2):% Inhibition = 100 × [1 − (Yt/Yc)](2) where Yt = average increase in paw thickness in the treated group of rats between two measurement moments, and Yc = average increase in paw thickness in the untreated group of rats between two measurement moments.

[2] = 2.5 mg/kg, 1 h after carrageenan
[3] = 2.5 mg/kg, 2 h after carrageenan
[4] = 2.5 mg/kg, 3 h after carrageenan
[5] = 2.5 mg/kg, 4 h after carrageenan
[6] = 5.0 mg/kg, 1 h after carrageenan
[7] = 5.0 mg/kg, 2 h after carrageenan
[8] = 5.0 mg/kg, 3 h after carrageenan
[9] = 5.0 mg/kg, 4 h after carrageenan
[10] = 10.0 mg/kg, 1 h after carrageenan
[11] = 10.0 mg/kg, 2 h after carrageenan
[12] = 10.0 mg/kg, 3 h after carrageenan
[13] = 10.0 mg/kg, 4 h after carrageenan

| Structure (SMILES) | inhibition at 10 µM (5-LOX) [%] | Rat Paw Thickness [1, 2] [mm] | Rat Paw Thickness [1, 3] [mm] | Rat Paw Thickness [1, 4] [mm] | Rat Paw Thickness [1, 5] [mm] | Rat Paw Thickness [1, 6] [mm] | Rat Paw Thickness [1, 7] [mm] | Rat Paw Thickness [1, 8] [mm] | Rat Paw Thickness [1, 9] [mm] | Rat Paw Thickness [1, 10] [mm] | Rat Paw Thickness [1, 11] [mm] | Rat Paw Thickness [1, 12] [mm] | Rat Paw Thickness [1, 13] [mm] | inhibition in vivo at 2.5 mg/kg ([1]; 2.5 mg/kg, 1 h) [%] | inhibition in vivo at 2.5 mg/kg ([1]; 2.5 mg/kg, 2 h) [%] | inhibition in vivo at 2.5 mg/kg ([1]; 2.5 mg/kg, 3 h) [%] | inhibition in vivo at 2.5 mg/kg ([1]; 2.5 mg/kg, 4 h) [%] | inhibition in vivo at 5 mg/kg ([1]; 5.0 mg/kg, 1 h) [%] | inhibition in vivo at 5 mg/kg ([1]; 5.0 mg/kg, 2 h) [%] | inhibition in vivo at 5 mg/kg ([1]; 5.0 mg/kg, 3 h) [%] | also measured |
| --- | --- | --- | --- | --- | --- | --- | --- | --- | --- | --- | --- | --- | --- | --- | --- | --- | --- | --- | --- | --- | --- |
| COc1ccc2cc([C@H](C)C(=O)NC(=S)Nc3ccc(C)cc3)ccc2c1 [Compound 9, (S)-2-(6-methoxynaphthalen-2-yl)-N-(p-tolylcarbamothioyl)propanamide] | 12.9 ± 5.47 | 6.60 ± 0.10 | 6.33 ± 0.06 | 5.97 ± 0.06 | 5.70 ± 0.26 | 6.53 ± 0.32 | 6.23 ± 0.23 | 5.90 ± 0.17 | 5.50 ± 0.36 | 6.20 ± 0.17 | 5.83 ± 0.29 | 5.33 ± 0.15 | 5.05 ± 0.09 | 25.2 | 28.8 | 35.1 | 37.8 | 22.4 | 27.3 | 31.5 | inhibition in vivo at 5 mg/kg ([1]; 5.0 mg/kg, 4 h): 42.2%; inhibition in vivo at 10 mg/kg ([1]; 10.0 mg/kg, 1 h): 22.4%; inhibition in vivo at 10 mg/kg ([1]; 10.0 mg/kg, 2 h): 30.3%; inhibition in vivo at 10 mg/kg ([1]; 10.0 mg/kg, 3 h): 44.1%; inhibition in vivo at 10 mg/kg ([1]; 10.0 mg/kg, 4 h): 50% |
| COc1ccc2cc([C@H](C)C(=O)NC(=S)Nc3ccccc3F)ccc2c1 [Compound 12, (S)-N-((2-fluorophenyl)carbamothioyl)-2-(6-methoxynaphthalen-2-yl)propanamide] | 29.7 ± 8.56 | 6.83 ± 0.38 | 6.43 ± 0.40 | 6.00 ± 0.30 | 5.53 ± 0.06 | 6.07 ± 0.64 | 5.83 ± 0.49 | 5.57 ± 0.38 | 5.03 ± 0.12 | 6.33 ± 0.21 | 6.03 ± 0.06 | 5.60 ± 0.10 | 5.17 ± 0.21 | 8.84 | 16.7 | 24.3 | 37.8 | 18.4 | 19.7 | 18.9 | inhibition in vivo at 5 mg/kg ([1]; 5.0 mg/kg, 4 h): 35.6%; inhibition in vivo at 10 mg/kg ([1]; 10.0 mg/kg, 1 h): 19.7%; inhibition in vivo at 10 mg/kg ([1]; 10.0 mg/kg, 2 h): 24.2%; inhibition in vivo at 10 mg/kg ([1]; 10.0 mg/kg, 3 h): 33.3%; inhibition in vivo at 10 mg/kg ([1]; 10.0 mg/kg, 4 h): 46.7% |
